# In PubChem BioAssay (NCI):
#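 Five concentrations, 48 hours, 96-well plates. TGI is the concentration that stops growth completely.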
# Tests used:
# Assay in all cases: growth of human tumour cells (NCI), 48 h
# HCC-2998 colon = system: HCC-2998 colon
# MDA-N = system: MDA-N
# MDA-MB-435 = system: MDA-MB-435
# K-562 leukemia = system: K-562 leukemia
# HOP-62 NSCLC = system: HOP-62 NSCLC
# M14 melanoma = system: M14 melanoma
# SF-295 CNS = system: SF-295 CNS
# NCI-H23 lung = system: NCI-H23 lung
# HCT-116 colon = system: HCT-116 colon
# RXF 393 renal = system: RXF 393 renal
# OVCAR-8 ovarian = system: OVCAR-8 ovarian
Compound,TGI (HCC-2998 colon),TGI (MDA-N),TGI (MDA-MB-435),TGI (K-562 leukemia),TGI (HOP-62 NSCLC),TGI (M14 melanoma),TGI (SF-295 CNS),TGI (NCI-H23 lung),TGI (HCT-116 colon),TGI (RXF 393 renal),TGI (OVCAR-8 ovarian)
O=C(Nc1ccccn1)c1cc2c(cc1Cl)Sc1nccn1S2(=O)=O,30.9 µM,> 100 µM,> 100 µM,> 100 µM,> 100 µM,> 100 µM,> 100 µM,82.6 µM,> 100 µM,93.9 µM,> 100 µM
COc1ccc(/C=C/C(=O)N[C@@H]2C(=O)N3[C@@H]2SC(C)(C)[C@@H]3C(=O)O)cc1OC,> 100 µM,> 100 µM,> 100 µM,> 100 µM,> 100 µM,> 100 µM,> 100 µM,> 100 µM,> 100 µM,> 100 µM,> 100 µM
C[C@@H](Br)[C@@H]1CC[C@H]2c3[nH]c4ccccc4c3CCN2C1,31.3 µM,44 µM,45.6 µM,38.6 µM,40.5 µM,44 µM,47.8 µM,67.1 µM,,61.5 µM,> 100 µM
Cc1cccc2c1CC1(Cc3c(C)cccc3C1=O)C2=O,> 100 µM,> 100 µM,> 100 µM,> 100 µM,> 100 µM,> 100 µM,> 100 µM,> 100 µM,> 100 µM,> 100 µM,> 100 µM
Cc1csc(CP(=O)(OC(C)C)OC(C)C)n1,> 100 µM,> 100 µM,> 100 µM,> 100 µM,> 100 µM,> 100 µM,> 100 µM,> 100 µM,> 100 µM,> 100 µM,> 100 µM
FC(F)(F)c1ccc(N=NN2CCCC2)cc1,> 100 µM,> 100 µM,> 100 µM,> 100 µM,> 100 µM,> 100 µM,> 100 µM,> 100 µM,> 100 µM,> 100 µM,
C=CCOC1=C(OC(C)=O)C(C2COC(C)(C)O2)OC1=O (stereo not drawn),> 100 µM,> 100 µM,46.2 µM,35.9 µM,> 100 µM,53.8 µM,> 100 µM,35 µM,36 µM,46.3 µM,> 100 µM
COC1=C2C[C@](OC)(C#CC=CC#CC2O)CC1(C)C (stereo partly drawn),> 100 µM,> 100 µM,> 100 µM,> 100 µM,> 100 µM,,> 100 µM,> 100 µM,> 100 µM,> 100 µM,> 100 µM
CCN(CC)C(=O)CCNC(C)Cc1c[nH]c2ccccc12 (stereo not drawn),> 100 µM,> 100 µM,> 100 µM,> 100 µM,> 100 µM,> 100 µM,> 100 µM,> 100 µM,> 100 µM,> 100 µM,> 100 µM
CCOc1ccnc2c(OC)c(C)c3nc4ccccc4nc3c12,> 100 µM,> 100 µM,> 100 µM,> 100 µM,> 100 µM,> 100 µM,> 100 µM,> 100 µM,> 100 µM,> 100 µM,> 100 µM
O=c1oc2ccc([N+](=O)[O-])cc2cc1-c1csc(-c2ccccc2)n1,> 100 µM,> 100 µM,> 100 µM,> 100 µM,> 100 µM,> 100 µM,> 100 µM,,> 100 µM,> 100 µM,> 100 µM
Cc1nc2ccccc2n1Cc1ccc(NC(=S)NC2CCCCC2)cc1,> 100 µM,> 100 µM,> 100 µM,> 100 µM,> 100 µM,> 100 µM,> 88.3 µM,> 100 µM,> 100 µM,> 100 µM,> 100 µM
COc1cc(CNC(=O)CCCCCCCCCCSC#N)ccc1O,> 100 µM,31.3 µM,24.4 µM,88.5 µM,,21.5 µM,37.4 µM,43 µM,28.1 µM,21.9 µM,43.2 µM
CCOC1=NC(C(F)(F)F)(C(F)(F)F)N=C(/N=C(/N)N(C)C(C(C)C)P(=O)(OC(C)C)OC(C)C)O1 (stereo not drawn),> 100 µM,> 100 µM,> 100 µM,> 100 µM,> 100 µM,> 100 µM,> 100 µM,> 100 µM,> 100 µM,> 100 µM,> 100 µM
CCOC(=O)CCNC(=O)c1cc(C)cc2c1Oc1c(cc(C)cc1C(=O)NCCC(=O)OCC)S2,> 100 µM,> 100 µM,> 100 µM,> 100 µM,> 100 µM,> 100 µM,> 100 µM,> 100 µM,> 100 µM,58 µM,> 100 µM
ClC1(Cl)C2CCOC21n1cnc2ccccc21 (stereo not drawn),> 100 µM,> 100 µM,> 100 µM,> 100 µM,> 100 µM,> 100 µM,> 100 µM,> 100 µM,> 100 µM,> 100 µM,> 100 µM
CC(=O)Nc1ccc2cc3c(nc2n1)c1cccnc1n3S(=O)(=O)c1ccccc1,> 100 µM,> 100 µM,> 100 µM,> 100 µM,> 100 µM,> 100 µM,> 100 µM,> 100 µM,> 100 µM,> 100 µM,> 100 µM
COC(=O)CC(c1ccccc1)C(C#N)(OP1(=O)OC(c2ccccc2)C(C)N1C)c1ccccc1 (stereo not drawn),> 100 µM,> 100 µM,> 100 µM,> 100 µM,> 100 µM,> 100 µM,> 100 µM,> 100 µM,> 100 µM,> 100 µM,> 100 µM
CC(C)[Si](CC1=CCCCC12C(=O)N(COCC[Si](C)(C)C)c1ccccc12)(C(C)C)C(C)C (stereo not drawn),> 100 µM,> 100 µM,> 100 µM,> 100 µM,> 100 µM,> 100 µM,> 100 µM,> 100 µM,,54.2 µM,> 100 µM
CC1=NN(c2cccc(S(=O)(=O)O)c2)C2(C1)SCC(=O)N2c1nc2ccccc2s1 (stereo not drawn),> 100 µM,> 100 µM,> 100 µM,> 100 µM,> 100 µM,> 100 µM,> 100 µM,> 100 µM,> 100 µM,> 100 µM,> 100 µM
COc1ccc(C2=Nn3c(C)nnc3S/C2=C\c2ccc(-c3ccc([N+](=O)[O-])cc3)o2)cc1,19.9 µM,29.8 µM,17.9 µM,17.7 µM,> 100 µM,48.2 µM,> 100 µM,28.5 µM,26.1 µM,22.8 µM,15.9 µM
O=C(CCCN1CCC(Nc2ccc(F)cc2)(c2nnnn2C2CCCCC2)CC1)c1ccc(F)cc1,> 100 µM,30.7 µM,31.5 µM,> 100 µM,33.6 µM,32.4 µM,40.9 µM,29 µM,26.1 µM,25.5 µM,63.4 µM
O=[N+]([O-])C(=C(\Cl)NCCO)/C(Cl)=C(/Cl)Br,11.1 µM,3.97 µM,2.67 µM,2.97 µM,29 µM,3.68 µM,24.9 µM,11.1 µM,5.18 µM,5.95 µM,7.31 µM
CCOC(=O)C1=CN(Cc2ccccc2)C2ON=C(c3ccc(Cl)cc3)C2C1 (stereo not drawn),> 100 µM,> 68.9 µM,> 79.5 µM,> 100 µM,> 67.7 µM,> 66.9 µM,> 67 µM,> 66.8 µM,> 61.9 µM,> 67.6 µM,> 67.4 µM
C[C@H](OC(=O)/C=C/c1ccc(O)c(O)c1)[C@H](C)OC(=O)/C=C/c1ccc(O)c(O)c1,33.4 µM,18.4 µM,77.3 µM,> 100 µM,26.6 µM,23.5 µM,19.8 µM,18 µM,23.3 µM,28.5 µM,26.2 µM
CC(=O)Oc1ccc(C2SCc3nc4ccccc4n32)cc1 (stereo not drawn),69 µM,> 63.8 µM,59.4 µM,> 100 µM,> 100 µM,> 100 µM,> 100 µM,> 100 µM,> 100 µM,77.3 µM,> 100 µM
NC(=O)NC(=O)c1cccc(C(=O)NC(N)=O)n1,> 100 µM,> 100 µM,> 100 µM,> 100 µM,> 100 µM,> 100 µM,> 100 µM,> 100 µM,> 100 µM,> 100 µM,> 100 µM
O=C(O)COc1cccc2ccccc(=O)c12,> 100 µM,> 100 µM,> 100 µM,> 100 µM,> 100 µM,> 100 µM,> 100 µM,> 100 µM,> 100 µM,> 100 µM,> 100 µM
O=[N+]([O-])c1cc(C2ON=C(c3ccccc3)N2C23CC4CC(CC(C4)C2)C3)ccc1Cl (stereo not drawn),> 100 µM,> 100 µM,> 100 µM,> 100 µM,> 100 µM,> 100 µM,> 100 µM,> 100 µM,> 100 µM,> 100 µM,> 100 µM
CC1(C)C/C=C\CCC(O)C(O)CCC(C)(C)C1=O (stereo not drawn),> 100 µM,> 100 µM,> 100 µM,> 100 µM,> 100 µM,,> 100 µM,> 100 µM,> 100 µM,> 100 µM,> 100 µM
